# Results from PMC6705239 (ACS Omega, 2019).
# “Also recorded” adds a separate entry of the source.
# Columns and labels:
# in vitro = conditions: dog
# [1] = system: Influenza A virus H1N1 (H1N1A/Weiss/43); assay: microbe, parasite or virus in culture; type: cell-based; conditions: for EC50: 72 h
# [2] = system: NA from influenza A virus H1N1; type: biochemical
# influenza A virus H1N1 = system: influenza A virus H1N1; design: species or system SPF KM mice; conditions: mouse, in vivo
Structure (SMILES),CC50 (in vitro) [µM],"EC50 ([1]; Influenza A virus, H1N1, MDCK) [µM]",also measured
COC1=C(c2ccc(Cl)cc2)C(=O)OC1(C)C(O)c1ccc(N2CCOCC2)cc1 (stereo not drawn) [Compound 48],130 ± 8.1,,
COC1(C)OC(=O)C(c2ccc(F)cc2)=C1N1CCOCC1 (stereo not drawn) [Compound 57],776 ± 63.2,14.3 ± 1.7,
"COC1=C(c2ccc(F)c(F)c2)C(=O)OC1(C)OC (stereo not drawn) [Compound 30, 2-(3,4-difluorophenyl)-3,4-dimethoxy-4-methylbutenolide]",109 ± 7.6,33.4 ± 1,
COC1(C)OC(=O)C(c2ccc(Cl)cc2)=C1N1CCOCC1 (stereo not drawn) [Compound 58],209 ± 14.1,34.7 ± 5.9,
"COC1=C(c2ccc(Br)cc2)C(=O)OC1(C)OC (stereo not drawn) [Compound 25, 2-(4-bromophenyl)-3,4-dimethoxy-4-methylbutenolide]",266 ± 18.4,61.1 ± 5,"IC50 ([1]; Influenza A virus, H1N1, MDCK, read-out: IC50 for inhibiting influenza A virus H1N1): 61 µM"
"COC1=C(c2ccccc2F)C(=O)OC1(C)OC (stereo not drawn) [Compound 29, 2-(2-fluorophenyl)-3,4-dimethoxy-4-methylbutenolide]",204 ± 3.2,,
"COC1=C(c2cccc(F)c2)C(=O)OC1(C)OC (stereo not drawn) [Compound 28, 2-(3-fluorophenyl)-3,4-dimethoxy-4-methylbutenolide]",19.8 ± 1,9.4 ± 0.8,
COC1=C(c2ccc(Cl)cc2)C(=O)OC1(C)C(O)c1ccc(C)cc1 (stereo not drawn) [Compound 46],75.2 ± 3.6,,
"COc1ccc(C2=C(N3CCOCC3)C(C)(OC)OC2=O)cc1 (stereo not drawn) [Compound 37, 2-(4-methoxyphenyl)-4-methoxy-4-methyl-3-morpholinobutenolide]",536 ± 15.1,6.7 ± 1.3,antivirus activity against influenza A H1N1 (in words) [1]: dose-dependent; also recorded: better antivirus activity than positive control ribavirin; inhibition rate of NA activity (in words) [2]: increased in a dose-dependent manner; body temperature after virus infection (influenza A virus H1N1): closed to the control groups; body weight after virus infection (influenza A virus H1N1): kept increasing; gross lesions in lungs (influenza A virus H1N1): less lesion; lung histopathology (H&E staining) (influenza A virus H1N1): less lung inflammation and lesions; viral load / expression of virus gene in lung tissue by qRT-PCR (influenza A virus H1N1): inhibit the expression of the influenza A virus gene in the lung; also recorded: Lower viral loads; also recorded: lower than that of the model group
"COC1=C(c2ccccc2)C(=O)OC1(C)OC (stereo not drawn) [Compound 22, 3,4-dimethoxy-4-methyl-2-phenylbutenolide]",168 ± 9.7,26.3 ± 4.4,
"COC1=C(c2ccc(C)cc2)C(=O)OC1(C)OC (stereo not drawn) [Compound 26, 3,4-dimethoxy-4-methyl-2-(p-tolyl) butenolide]",184 ± 5.1,,
COC1=C(c2ccc(Cl)cc2)C(=O)OC1(C)C(O)c1ccccn1 (stereo not drawn) [Compound 47],155 ± 6.8,,
"CCOC(=O)C1=C[C@@H](OC(CC)CC)[C@H](NC(C)=O)[C@@H](N)C1 [Os, Oseltamivir, reference compound]",> 800,0.28 ± 0.05,
"NC(=O)c1ncn([C@@H]2O[C@H](CO)[C@@H](O)[C@H]2O)n1 [Ri, Ribavirin, reference compound]",532 ± 20.3,105 ± 51,
COC1(C)OC(=O)C(c2cccc(F)c2)=C1N1CCOCC1 (stereo not drawn) [Compound 60],147 ± 8.1,,
"COC1=C(c2ccc(Cl)cc2)C(=O)OC1(C)OC (stereo not drawn) [Compound 24, 2-(4-chlorophenyl)-3,4-dimethoxy-4-methylbutenolide]",98.3 ± 3.5,,
